Where a name gives a salt, the structure may show the parent alone.
Tests used:
[1] = Storage stability of clopidogrel besylate and melt granulates containing it (HPLC impurities); format: physicochemical
Protocol: The stability on storage of clopidogrel besylate salt (CLO.Bes) is examined in comparison to melt granulates containing it. The main degradation product is alpha-(2-chlorophenyl)-4,5,6,7-tetrahydrothieno[3,2-c]pyridine-5-acetic acid, hereinafter designated as “ImpA” (ImpA is named according to USP 29 and corresponds to the hydrolysis product of Clopidogrel). In addition, the sum of all impurities (“SumImp”) is determined. Both ImpA and SumImp are expressed as percent by weight of the amount of the clopidogrel salt at the beginning of the experiment on day 0 and are determined using the HPLC-system described below.
In the below Table 1 for example the term “10% PEG 6000” means the melt granulate consisting of 10% by weight PEG 6000 and 90% by weight clopidogrel besylate, 30% PEG 6000 means the melt granulate consisting of 30% by weight PEG 6000 and 70% by weight clopidogrel besylate, etc.
The above-mentioned HPLC system is as follows:
Column: 250 mm×4.6 mm Modulo-Cart QS Uptisphere HDO, 3 μm
Detector: UV Detector or DAD Detector
Eluent A: 0.01M sodium phosphate dibasic aqueous solution (1.78 g Na2HPO4*2H2O/l), adjusted to pH 3.0±0.05 with phosphoric acid 85%
Mobile phase: 35% Eluent A+65% Eluent B
Preparation of Reference and Sample Solutions:
Approximately 55.92 mg of clopidogrel besilate reference substance are weighed into a 50 ml volumetric flask. Add 20 ml of mobile phase and sonicate in an ultrasonic bath at ambient temperature until the substance is dissolved (approx. 5 min). Make up to the mark with mobile phase. The concentration of clopidogrel besilate is 0.75 mg/ml as free base. Two independent reference solutions are prepared.
Sample Solution for 75 mg Tablets
Weigh 10 tablets and transfer them quantitatively into a 250 ml volumetric flask. Dissolve and make up to the mark with mobile phase. Dilute 25.0 ml to 100.0 ml with mobile phase. Filter through a 0.45 μm PTFE-filter in a HPLC vial. The concentration of clopidogrel is 0.75 mg/ml as free base. Two independent sample solutions are prepared.

[2] = Storage stability of clopidogrel hydrochloride and melt granulates containing it (HPLC impurities); format: physicochemical
Protocol: The stability on storage of clopidogrel hydrochloride salt (CLO.HCl) has been examined in comparison to melt granulates containing it. The main degradation product is alpha-(2-chlorophenyl)-4,5,6,7-tetrahydrothieno[3,2-c]pyridine-5-acetic acid, hereinafter designated as “ImpA” (impurity acid). In addition, the sum of all impurities (“SumImp”) is determined by HPLC analogously as described above for clopidogrel besylate. Both ImpA and SumImp are expressed as percent by weight of the amount of the clopidogrel salt at the beginning of the experiment on day 0. The granulates mentioned in the below Table 2 are melt granulates consisting of 50% by weight of PEG 6000 and 50% clopidogrel hydrochloride, and 50% Compritol 888 ATO and 50% clopidogrel hydrochloride, respectively.

[3] = Day 0, percent by weight of the clopidogrel salt at day 0, HPLC
[4] = Day 15 at 50° C. and 75% relative humidity
[5] = Day 30 at 40° C. and 75% relative humidity

ImpA [%] [1, 3] [%]	SumImp [%] ([1]; Day 0, sum of all impurities, percent by weight of the clopidogrel salt at day 0, HPLC)	ImpA [%] [1, 4] [%]	SumImp [%] [1, 4] [%]	SumImp [%] ([2]; Day 0)	ImpA [%] [2, 3] [%]	ImpA [%] [2, 5] [%]	SumImp [%] [2, 5] [%]	impurities relative to clopidogrel hydrochloride stabilized in the melt granulates ([2]; after storage for 30 days at 40° C. and 75% relative humidity)	Compound
0.09	0.24	0.34	0.52	–	–	–	–	–	COC(=O)[C@H](c1ccccc1Cl)N1CCc2sccc2C1 [CLO•Bes, clopidogrel besylate]
–	–	–	–	0.58	0.18	1.28	1.99	nearly twice as much impurities	COC(=O)[C@H](c1ccccc1Cl)N1CCc2sccc2C1 [CLO•HCl, clopidogrel hydrochloride]

Reference: patent publication US20090270448A1, “PHARMACEUTICAL FORMULATIONS COMPRISING CLOPIDOGREL” (ACINO PHARMA AG, priority 2006, published 2009)
